Source: patent publication US20110124086A1, “Hepatitis C Virus Culture System” (The Regents of the University of California, priority 2009, published 2011)

Experiments:
Format in all cases: cell-based, Hepatitis C virus
HCV genotype 1b (CG1b) = test: HCV infectivity of medium from Jak2 inhibitor II-treated FH-CG1bRbz cells inoculated on Huh7 cells, HCV RNA by qRT-PCR; conditions: HCV RNA after 48 hrs, later passage FH cell culture medium
Method: (§1) Cg1bRbz cells were treated with C5 (1 μM) or Jak2 inhibitor II (10 and 50 μM) for 48 or 96 hrs and analyzed for intracellular HCV RNAs by qRT-PCR. Huh7 cells transfected with JFH1 RNA were also used as a control. Bottom right—Huh7 cells were inoculated with virus samples prepared from control and Jak2 inhibitor II-treated later passage FH cell culture medium and analyzed for HCV RNA after 48 hrs by qRT-PCR.
(§2) Huh7 human hepatoma cells were transfected with in vitro-transcribed JFH1 RNA and cultured, as previously described (Choi et al. (2004) Hepatology 39:91-9). Telomerase-reconstituted primary human hepatocytes were transfected with pEF-CG1 bRbz/Neo, pEF-CG1 bGNDRbz/Neo, or control EF-driven vector alone as described for Huh7, and cell clones that are stably transfected with these constructs were selected and maintained in G418-containing medium (Invitrogen) (Wege et al. (2004) Gastroenterology 124:432-44). […]
(§3) HCV RNA was quantified by quantitative reverse transcriptase polymerase chain reaction (qRT-PCR) as described. […]
(§4) It was then examined whether suppressing the hepatocyte innate immunity by inhibiting Jak/Stat pathway and/or PKR could increase the HCV titer in Applicants' FH cell clones and therefore, increase the infectivity of CG1b. HCV RNA level was analyzed in FH-CG1 bRbz cells after 48 or 96 hr incubation with C5, an inhibitor of PKR, or Jak2 Inhibitor II.

[1] = tested on: JFH1 (HCV genotype 2a) in Huh7 cells; test: Effect of PKR and Jak2 inhibitor on intracellular HCV RNA in Huh7 cells transfected with JFH1 RNA, qRT-PCR; conditions: C5 1 μM or Jak2 inhibitor II 10 and 50 μM, 48 or 96 hrs
Method: as §1, §2, §3, §4

[2] = tested on: HCV genotype 1b (CG1b) in FH-CG1bRbz cells; test: Effect of PKR and Jak2 inhibitor on intracellular HCV RNA in FH-CG1bRbz cells, qRT-PCR; conditions: C5 1 μM or Jak2 inhibitor II 10 and 50 μM, 48 or 96 hr incubation
Method: as §1
HCV RNA was quantified by quantitative reverse transcriptase polymerase chain reaction (qRT-PCR) as described. Intracellular HCV RNA levels were normalized by glyceraldehydes 3-phosphate dehydrogenase mRNA content. Standard curves were generated using in vitro-transcribed HCV RNA's. Control reactions containing no reverse transcriptase were also carried out as controls. HCV protein levels were visualized by immunofluorescence staining followed by confocal microscopy. […]
as §4

[3] = tested on: HCV of genotype 1b (CG1b); test: Antiviral activity of IFNα in Huh7 cells infected with FH-CG1bRbz hepatocyte-derived medium, HCV RNA by qRT-PCR; conditions: IFNα 100 U/ml once, 48 hrs after infection, analysed after 24 hrs
Method: Huh7 cells were infected with hepatocyte-derived medium. Then, after 48 hrs, cells were treated with 0 or 100 U/ml of IFNα once and analyzed for HCV RNA by qRT-PCR after 24 hrs. N.D. indicates not detectable or below the level of detection.
Huh7 human hepatoma cells were transfected with in vitro-transcribed JFH1 RNA and cultured, as previously described (Choi et al. (2004) Hepatology 39:91-9). Telomerase-reconstituted primary human hepatocytes were transfected with pEF-CG1 bRbz/Neo, pEF-CG1 bGNDRbz/Neo, or control EF-driven vector alone as described for Huh7, and cell clones that are stably transfected with these constructs were selected and maintained in G418-containing medium (Invitrogen) (Wege et al. (2004) Gastroenterology 124:432-44). For virus infection, the extracellular medium from JFH1-transfected cells and CG1b transfected cell clones was cleared by low speed centrifugation at 5,000 rpm for 10 min and concentrated ˜10 fold by ultracentrifugation at 21,000 rpm for 6.5 hrs at 4° C. The medium was also pre-treated with RNase (and also with DNase for CG1b medium) for 30 min at room temperature prior to these centrifugation steps. Then, the concentrated virus samples were used to inoculate naïve Huh7 or Huh7.5 cells (Wakita et al. (2005) Nat. Med. 11:791-6). […]
as §3

Molecule | HCV infectivity of medium from Jak2 inhibited FH-CG1bRbz cells compared to medium from control cells (HCV genotype 1b (CG1b)) | intracellular HCV RNA in Huh7 cells transfected with JFH1 RNA [1] | intracellular HCV RNA in FH-CG1bRbz cells [2] | HCV titer (HCV RNA) in CG1b-infected Huh7 cells [3] | HCV titer (HCV RNA) in CG1b-infected Huh7 cells ([3]; listed as interferon alpha)
BrC1C(Br)C(Br)C(Br)C(Br)C1Br (centres unmarked) [Jak2 Inhibitor II] | increased only modestly | an increase in the intracellular HCV RNA | intracellular HCV RNA increased |  | 
interferon alpha [IFNα] |  |  |  | decreased HCV titer | decreased
